The values below come from patent EP0151996A2, “Process for the Preparation of a double-chain plasminogen activator” (Asahi Kasei Kogyo Kabushiki Kaisha, priority 1984, dated 1985).

Assay [1] concerns the target T1, single-chain plasminogen activator (Homo sapiens, UniProt P00750).
T1 construct: culturing human normal tissue derived cells such as cells derived from human embryonic kidney, intestines, lungs; endogenous in cells; host or cells: human normal tissue derived cells (e.g. human embryonic kidney or lung cells); secreted protein purified from the culture liquor in the presence of aprotinin
Put plainly: Influence of proteinase inhibitors on hydrolysis of Boc-Phe-Ser-Arg-MCA, single-chain form. The class given is biochemical. How it is done: (§1) To 50 µℓ of either each of the substances of this invention (100 U/mt) or urokinase (100 IU/mℓ) were added 50 µℓ of one of a number of solutions of various proteinase inhibitors and 300 µℓ of a 0.05 M tris-HCt buffer (pH 8.0) containing 0.1 M sodium chloride, and each reaction was effected at 37°C for 5 minutes. Thereafter, 100 µℓ of 0.1 mM of Boc-Phe-Ser-Arg-MCA (Peptide Institute, Inc.) was added, and each reaction was effected at 37°C.for 60 minutes. Thereafter, 0.5 mℓ of 20% acetic acid was added to terminate the reaction which was then measured for the formed aminomethylcoumarin at an excitation wavelength of 370 nm, a slit width of 2 nm, an emission wavelength of 460 nm and a slit width of 2 nm to determine the hydrolysis activity.
(§2) The concentrations (IC50) of the proteinase inhibitors which inhibit 50% of the activity of the substances of this invention were determined and the results are shown in Table 2.

Assay [2] has as its target T2, double-chain plasminogen activator (Homo sapiens, UniProt P00750).
T2 construct: endogenous in cells; host or cells: human normal tissue derived cells (e.g. human embryonic kidney or lung cells); secreted protein purified from the culture liquor and converted by enzyme (plasmin) treatment or incubation
Put plainly: Influence of proteinase inhibitors on hydrolysis of Boc-Phe-Ser-Arg-MCA, double-chain form. The class given is biochemical. How it is done:
as §1, §2

Like-named read-outs stand apart in the source and are kept apart here.

T2 sequence (P00750 311-562 limits assumed): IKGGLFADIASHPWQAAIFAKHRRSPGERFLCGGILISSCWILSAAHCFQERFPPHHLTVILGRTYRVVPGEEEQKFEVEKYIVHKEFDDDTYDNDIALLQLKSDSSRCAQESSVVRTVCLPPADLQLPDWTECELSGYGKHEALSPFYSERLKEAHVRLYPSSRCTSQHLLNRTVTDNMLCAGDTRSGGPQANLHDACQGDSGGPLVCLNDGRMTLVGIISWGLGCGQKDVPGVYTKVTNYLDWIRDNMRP
T2 sequence (P00750 36-310 partner limits assumed): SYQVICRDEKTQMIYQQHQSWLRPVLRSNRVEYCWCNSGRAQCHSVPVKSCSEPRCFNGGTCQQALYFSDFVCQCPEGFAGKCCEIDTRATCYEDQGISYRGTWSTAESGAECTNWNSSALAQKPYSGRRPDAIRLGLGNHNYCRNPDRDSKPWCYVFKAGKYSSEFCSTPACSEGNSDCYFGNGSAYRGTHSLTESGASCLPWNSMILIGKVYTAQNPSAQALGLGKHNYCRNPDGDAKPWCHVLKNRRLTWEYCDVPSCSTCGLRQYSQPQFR
T1 sequence (P00750 36-562): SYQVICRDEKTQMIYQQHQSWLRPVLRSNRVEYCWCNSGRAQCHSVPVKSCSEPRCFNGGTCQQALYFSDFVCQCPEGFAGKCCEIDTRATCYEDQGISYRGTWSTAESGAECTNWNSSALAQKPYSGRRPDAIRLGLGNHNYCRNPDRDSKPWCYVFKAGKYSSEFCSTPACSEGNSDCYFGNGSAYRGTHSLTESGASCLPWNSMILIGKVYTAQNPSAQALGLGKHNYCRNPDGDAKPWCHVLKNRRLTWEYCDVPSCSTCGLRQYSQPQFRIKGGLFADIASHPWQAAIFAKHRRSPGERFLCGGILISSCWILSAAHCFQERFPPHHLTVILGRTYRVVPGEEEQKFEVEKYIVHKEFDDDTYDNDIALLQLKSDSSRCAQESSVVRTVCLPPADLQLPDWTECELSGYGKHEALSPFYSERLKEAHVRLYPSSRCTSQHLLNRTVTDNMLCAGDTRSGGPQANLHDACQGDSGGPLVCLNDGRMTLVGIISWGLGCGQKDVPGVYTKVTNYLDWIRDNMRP

As usually defined, the IC50 is the point on the concentration scale where inhibition reaches its midpoint. As for `CC(=O)N[C@@H](CC(C)C)C(=O)N[C@@H](CC(C)C)C(=O)N[C@H](C=O)CCCNC(=N)N` [Leupeptin], the IC50 in assay [1] turned out to be 280 µM; in assay [2], 570 µM.

With `CCOC(=O)c1ccc(OC(=O)CCCCCNC(=N)N)cc1` [FOY], the IC50 in assay [1] (Single-Chain Structure 100 U/mℓ, substrate Boc-Phe-Ser-Arg-MCA, 37°C 60 minutes, read-out: IC50) was 17 µM; in assay [2] (Double-Chain Structure 100 U/mℓ, substrate Boc-Phe-Ser-Arg-MCA, 37°C 60 minutes, read-out: IC50), 92 µM.
